Test results as given in the supplement of paper PMC8617591.

Assays:
[1] = test system: Mycobacterium tuberculosis Erdman (autoluminescent); test: total FIC50 (Loewe) at 50% inhibition, three-drug combination (log2); higher = more antagonistic
Protocol: (§1)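 DiaMOND equipotent three-drug combination dose responses (10 doses, 1.5- or 2-fold spacing, centred on IC90) against autoluminescent M. tuberculosis Erdman in 8 in vitro models. Read-out is OD600, or luminescence for the intracellular and dormancy models, normalised to untreated wells. Hill-fit Einf, AUC25 and GRinf are potency metrics; FIC50 and FIC90 are total Loewe fractional inhibitory concentrations as log2 (negative = synergy).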

[2] = test system: Mycobacterium tuberculosis Erdman (autoluminescent); test: total FIC90 (Loewe) at 90% inhibition, three-drug combination (log2); higher = more antagonistic
Protocol: as §1

[3] = test system: Mycobacterium tuberculosis Erdman (autoluminescent); test: Einf, fitted maximum growth inhibition of three-drug combination (fraction); higher = stronger maximal inhibition
Protocol: as §1

[4] = test system: Mycobacterium tuberculosis Erdman (autoluminescent); test: AUC25, normalised area under dose response up to IC25 (three-drug combination) (fraction (0-1)); higher = more potent at low dose
Protocol: as §1

[5] = test system: Mycobacterium tuberculosis Erdman (autoluminescent); test: GRinf, maximum normalised growth rate inhibition (three-drug combination) (unitless (-1 to 1)); higher = less effect (negative = killing)
Protocol: as §1

COc1nc2ccc(Br)cc2cc1[C@@H](c1ccccc1)[C@@](O)(CCN(C)C)c1cccc2ccccc12 [bedaquiline] + COc1c(N2C[C@@H]3CCCN[C@@H]3C2)c(F)cc2c(=O)c(C(=O)O)cn(C3CC3)c12 [moxifloxacin] + CO[C@H]1/C=C/O[C@@]2(C)Oc3c(C)c(O)c4c(O)c(c(/C=N/N5CCN(C6CCCC6)CC5)c(O)c4c3C2=O)NC(=O)/C(C)=C\C=C\[C@H](C)[C@H](O)[C@@H](C)[C@@H](O)[C@@H](C)[C@H](OC(C)=O)[C@@H]1C [rifapentine]
Settings	AUC25, [4]	Einf, [3]	GRinf, [5]	total FIC50, [1]	total FIC90, [2]
in vitro model: acidic pH 5.7, time point: constant (~7 days, model-specific)	0.0678	0.851	-0.0721	0.823	–
in vitro model: acidic pH 5.7, time point: terminal (~4-5 doublings, model-specific)	0.0653	0.994	-0.308	1.07	0.708
in vitro model: intracellular J774, time point: constant = terminal	–	0.932	-0.235	–	0.946

Settings	AUC25, [4]	Einf, [3]	GRinf, [5]	total FIC50, [1]	total FIC90, [2]
in vitro model: butyrate, time point: constant (~7 days, model-specific)	0.1	0.952	-0.132	0.844	0.676
in vitro model: butyrate, time point: terminal (~4-5 doublings, model-specific)	0.0773	0.977	-0.0985	0.876	0.991
in vitro model: cholesterol 0.05 mM, time point: constant (~7 days, model-specific)	0.0837	0.716	-0.256	0.531	–
in vitro model: cholesterol 0.05 mM, time point: terminal (~4-5 doublings, model-specific)	0.0604	0.905	-0.183	0.923	0.462
in vitro model: cholesterol-high 0.2 mM, time point: constant (~7 days, model-specific)	0.0607	0.949	-0.394	0.723	0.4
in vitro model: cholesterol-high 0.2 mM, time point: terminal (~4-5 doublings, model-specific)	0.0498	1	-0.57	0.949	0.645
in vitro model: dormancy (butyrate + nitrate, low O2), time point: constant (~7 days, model-specific)	0.0857	0.928	0.0745	0.868	1.67
in vitro model: dormancy (butyrate + nitrate, low O2), time point: terminal (~4-5 doublings, model-specific)	0.0736	0.997	-0.28	1.05	1.35
in vitro model: standard 7H9 glycerol, time point: constant = terminal	0.0761	0.966	-0.0766	0.73	0.338
in vitro model: valerate, time point: constant (~7 days, model-specific)	0.063	0.915	-0.117	1.01	–
in vitro model: valerate, time point: terminal (~4-5 doublings, model-specific)	0.0335	0.946	-0.0711	0.995	0.711

NNC(=O)c1ccncc1 [isoniazid] + CC(=O)NC[C@H]1CN(c2ccc(N3CCOCC3)c(F)c2)C(=O)O1 [linezolid] + O=[N+]([O-])c1cn2c(n1)OC[C@@H](OCc1ccc(OC(F)(F)F)cc1)C2 [pretomanid]
Settings	AUC25, [4]	Einf, [3]	GRinf, [5]	total FIC50, [1]	total FIC90, [2]
in vitro model: acidic pH 5.7, time point: constant (~7 days, model-specific)	0.0901	0.793	-0.0622	4.28	–
in vitro model: acidic pH 5.7, time point: terminal (~4-5 doublings, model-specific)	0.0757	0.953	-0.252	4.74	4.06
in vitro model: intracellular J774, time point: constant = terminal	–	0.984	-0.382	–	1.1

Settings	AUC25, [4]	Einf, [3]	GRinf, [5]	total FIC50, [1]	total FIC90, [2]
in vitro model: butyrate, time point: constant (~7 days, model-specific)	0.103	0.921	-0.0322	2.79	1.15
in vitro model: butyrate, time point: terminal (~4-5 doublings, model-specific)	0.0738	0.963	-0.0424	2.83	3.23
in vitro model: cholesterol 0.05 mM, time point: constant (~7 days, model-specific)	0.129	0.69	-0.147	1.32	–
in vitro model: cholesterol 0.05 mM, time point: terminal (~4-5 doublings, model-specific)	0.124	0.912	-0.296	8.62	1.89
in vitro model: cholesterol-high 0.2 mM, time point: constant (~7 days, model-specific)	0.107	0.924	-0.361	0.772	–
in vitro model: cholesterol-high 0.2 mM, time point: terminal (~4-5 doublings, model-specific)	0.101	0.991	-0.726	0.566	1.06
in vitro model: dormancy (butyrate + nitrate, low O2), time point: constant (~7 days, model-specific)	0.0625	0.868	0.121	4.26	4.03
in vitro model: dormancy (butyrate + nitrate, low O2), time point: terminal (~4-5 doublings, model-specific)	0.0423	0.987	-0.233	4.19	4.02
in vitro model: standard 7H9 glycerol, time point: constant = terminal	0.0856	0.917	0.116	4.72	6.4
in vitro model: valerate, time point: constant (~7 days, model-specific)	0.126	0.88	0.0789	2.28	8.43
in vitro model: valerate, time point: terminal (~4-5 doublings, model-specific)	0.0856	0.93	0.029	2.36	2.72
